# Test results from patent publication US6358885B1, “Substituted phenylheterocyclic herbicides” (Mississippi State University, priority 1992, dated 2002).
# What was measured:
# Assay in all cases: Test B preemergence/postemergence greenhouse plant response rating 0 to 10
# barnyardgrass = format: in vivo, Echinochloa crus-galli; conditions: 0 to 10 scale
# Source text: (§1) Seeds of barley (Hordeum vulgare), barnyardgrass (Echinochloa crus-galli), bedstraw (Galium aparine), blackgrass (Alopecurus myosuroides), […] (Bromus secalinus), chickweed (Stellaria media), cocklebur (Xanthium pensylvanicum), corn (Zea mays), cotton (Gossypium hirsutum), crabgrass (Digitaria spp.), giant foxtail (Setaria faberii), lambsquarters (Chenopodium album), morningglory (Ipomoea hederacea), rape (Brassica napus), rice (Oryza sativa), sorghum (Sorghum bicolor), soybean (Glycine max), sugar beet (Beta vulgaris), velvetleaf (Abutilon theophrasti), wheat (Triticum aestivum), wild buckwheat (Polygonum convolvulus), and wild oat (Avena fatua) and purple nutsedge. (Cyperus rotundus) tubers were planted and treated preemergence with test chemicals dissolved in a non-phytotoxic solvent. At the same time, these crop and weed species were also treated with postemergence applications of test chemicals. Plants ranged in height from two to eighteen cm (one to four leaf stage) for postemergence treatments. Treated plants and controls were maintained in a greenhouse for twelve to sixteen days, after which all species were compared to controls and visually evaluated. […] A dash (-) response means no test result.
# morningglory = format: in vivo, Ipomoea hederacea; conditions: 0 to 10 scale
# Source text: as §1
# crabgrass = format: in vivo, Digitaria spp.; conditions: PREEMERGENCE, 0 to 10 scale
# Source text: as §1
# soybean = format: in vivo, Glycine max; conditions: 0 to 10 scale
# Source text: as §1
# barley = format: in vivo, Hordeum vulgare; conditions: 0 to 10 scale
# Source text: as §1
# purple nutsedge = format: in vivo, Cyperus rotundus; conditions: 0 to 10 scale
# Source text: as §1
# cotton = format: in vivo, Gossypium hirsutum; conditions: 0 to 10 scale
# Source text: as §1
# rape = format: in vivo, Brassica napus; conditions: 0 to 10 scale
# Source text: as §1
# giant foxtail = format: in vivo, Setaria faberii; conditions: 0 to 10 scale
# Source text: as §1
# wild buckwheat = format: in vivo, Polygonum convolvulus; conditions: 0 to 10 scale
# Source text: as §1
# lambsquarters = format: in vivo, Chenopodium album; conditions: 0 to 10 scale
# Source text: as §1
# rice = format: in vivo, Oryza sativa; conditions: 0 to 10 scale
# Source text: as §1
# wheat = format: in vivo, Triticum aestivum; conditions: 0 to 10 scale
# Source text: as §1
# wild oat = format: in vivo, Avena fatua; conditions: 0 to 10 scale
# Source text: as §1
# velvetleaf = format: in vivo, Abutilon theophrasti; conditions: 0 to 10 scale
# Source text: as §1
# sorghum = format: in vivo, Sorghum bicolor; conditions: 0 to 10 scale
# Source text: as §1
# bedstraw = format: in vivo, Galium aparine; conditions: 0 to 10 scale
# Source text: as §1
# cheatgrass = format: in vivo, Bromus secalinus; conditions: 0 to 10 scale
# Source text: as §1
# chickweed = format: in vivo, Stellaria media; conditions: 0 to 10 scale
# Source text: as §1
# cocklebur = format: in vivo, Xanthium pensylvanicum; conditions: 0 to 10 scale
# Source text: as §1
# blackgrass = format: in vivo, Alopecurus myosuroides; conditions: 0 to 10 scale
# Source text: as §1
# corn = format: in vivo, Zea mays; conditions: 0 to 10 scale
# Source text: as §1
# sugar beet = format: in vivo, Beta vulgaris; conditions: 0 to 10 scale
# Source text: as §1
structure (smiles),measurement,setting,value
CC(=O)c1cc(-c2nn3c(c2Cl)CCCC3)c(F)cc1Cl [Compound 45],"Plant response rating, Barnyardgrass","barnyardgrass; POSTEMERGENCE, Rate 50 g/ha",3
same,"Plant response rating, Barnyardgrass","barnyardgrass; POSTEMERGENCE, Rate 200 g/ha",5
same,"Plant response rating, Barnyardgrass","barnyardgrass; PREEMERGENCE, Rate 50 g/ha",0
same,"Plant response rating, Barnyardgrass","barnyardgrass; Rate 200 g/ha, PREEMERGENCE",5
same,"Plant response rating, Morningglory","morningglory; POSTEMERGENCE, Rate 50 g/ha",8
same,"Plant response rating, Morningglory","morningglory; PREEMERGENCE, Rate 50 g/ha",2
same,"Plant response rating, Morningglory","morningglory; Rate 200 g/ha, POSTEMERGENCE",9
same,"Plant response rating, Morningglory","morningglory; Rate 200 g/ha, PREEMERGENCE",4
same,"Plant response rating, Crabgrass",crabgrass; Rate 50 g/ha,0
same,"Plant response rating, Crabgrass",crabgrass; Rate 200 g/ha,6
same,"Plant response rating, Soybean","soybean; POSTEMERGENCE, Rate 50 g/ha",8
same,"Plant response rating, Soybean","soybean; PREEMERGENCE, Rate 50 g/ha",0
same,"Plant response rating, Soybean","soybean; Rate 200 g/ha, POSTEMERGENCE",8
same,"Plant response rating, Soybean","soybean; Rate 200 g/ha, PREEMERGENCE",2
same,"Plant response rating, Barley","barley; POSTEMERGENCE, Rate 50 g/ha",4
same,"Plant response rating, Barley","barley; POSTEMERGENCE, Rate 200 g/ha",3
same,"Plant response rating, Barley","barley; PREEMERGENCE, Rate 50 g/ha",0
same,"Plant response rating, Barley","barley; Rate 200 g/ha, PREEMERGENCE",2
same,"Plant response rating, Nutsedge","purple nutsedge; PREEMERGENCE, Rate 50 g/ha",0
same,"Plant response rating, Nutsedge","purple nutsedge; Rate 200 g/ha, POSTEMERGENCE",6
same,"Plant response rating, Nutsedge","purple nutsedge; Rate 200 g/ha, PREEMERGENCE",0
same,"Plant response rating, Cotton","cotton; POSTEMERGENCE, Rate 50 g/ha",10
same,"Plant response rating, Cotton","cotton; POSTEMERGENCE, Rate 200 g/ha",10
same,"Plant response rating, Cotton","cotton; PREEMERGENCE, Rate 50 g/ha",0
same,"Plant response rating, Cotton","cotton; Rate 200 g/ha, PREEMERGENCE",0
same,"Plant response rating, Rape","rape; POSTEMERGENCE, Rate 50 g/ha",3
same,"Plant response rating, Rape","rape; PREEMERGENCE, Rate 50 g/ha",2
same,"Plant response rating, Rape","rape; Rate 200 g/ha, POSTEMERGENCE",10
same,"Plant response rating, Rape","rape; Rate 200 g/ha, PREEMERGENCE",7
same,"Plant response rating, Giant foxtail","giant foxtail; POSTEMERGENCE, Rate 50 g/ha",5
same,"Plant response rating, Giant foxtail","giant foxtail; PREEMERGENCE, Rate 50 g/ha",2
same,"Plant response rating, Giant foxtail","giant foxtail; Rate 200 g/ha, POSTEMERGENCE",5
same,"Plant response rating, Giant foxtail","giant foxtail; Rate 200 g/ha, PREEMERGENCE",5
same,"Plant response rating, Wild buckwheat","wild buckwheat; POSTEMERGENCE, Rate 50 g/ha",10
same,"Plant response rating, Wild buckwheat","wild buckwheat; PREEMERGENCE, Rate 50 g/ha",3
same,"Plant response rating, Wild buckwheat","wild buckwheat; Rate 200 g/ha, POSTEMERGENCE",10
same,"Plant response rating, Wild buckwheat","wild buckwheat; Rate 200 g/ha, PREEMERGENCE",10
same,"Plant response rating, Lambsquarter","lambsquarters; POSTEMERGENCE, Rate 50 g/ha",10
same,"Plant response rating, Lambsquarter","lambsquarters; PREEMERGENCE, Rate 50 g/ha",10
same,"Plant response rating, Lambsquarter","lambsquarters; Rate 200 g/ha, POSTEMERGENCE",10
same,"Plant response rating, Lambsquarter","lambsquarters; Rate 200 g/ha, PREEMERGENCE",10
same,"Plant response rating, Rice","rice; POSTEMERGENCE, Rate 50 g/ha",6
same,"Plant response rating, Rice","rice; PREEMERGENCE, Rate 50 g/ha",0
same,"Plant response rating, Rice","rice; Rate 200 g/ha, POSTEMERGENCE",6
same,"Plant response rating, Rice","rice; Rate 200 g/ha, PREEMERGENCE",3
same,"Plant response rating, Wheat","wheat; POSTEMERGENCE, Rate 50 g/ha",3
same,"Plant response rating, Wheat","wheat; PREEMERGENCE, Rate 50 g/ha",2
same,"Plant response rating, Wheat","wheat; Rate 200 g/ha, POSTEMERGENCE",8
same,"Plant response rating, Wheat","wheat; Rate 200 g/ha, PREEMERGENCE",5
same,"Plant response rating, Wild oat","wild oat; POSTEMERGENCE, Rate 50 g/ha",2
same,"Plant response rating, Wild oat","wild oat; PREEMERGENCE, Rate 50 g/ha",2
same,"Plant response rating, Wild oat","wild oat; Rate 200 g/ha, POSTEMERGENCE",3
same,"Plant response rating, Velvetleaf","velvetleaf; POSTEMERGENCE, Rate 50 g/ha",9
same,"Plant response rating, Velvetleaf","velvetleaf; PREEMERGENCE, Rate 50 g/ha",2
same,"Plant response rating, Velvetleaf","velvetleaf; Rate 200 g/ha, POSTEMERGENCE",10
same,"Plant response rating, Velvetleaf","velvetleaf; Rate 200 g/ha, PREEMERGENCE",0
same,"Plant response rating, Sorghum","sorghum; POSTEMERGENCE, Rate 50 g/ha",4
same,"Plant response rating, Sorghum","sorghum; PREEMERGENCE, Rate 50 g/ha",0
same,"Plant response rating, Sorghum","sorghum; Rate 200 g/ha, POSTEMERGENCE",5
same,"Plant response rating, Sorghum","sorghum; Rate 200 g/ha, PREEMERGENCE",1
same,"Plant response rating, Bedstraw","bedstraw; POSTEMERGENCE, Rate 50 g/ha",8
same,"Plant response rating, Bedstraw","bedstraw; POSTEMERGENCE, Rate 200 g/ha",10
same,"Plant response rating, Bedstraw","bedstraw; PREEMERGENCE, Rate 50 g/ha",2
same,"Plant response rating, Bedstraw","bedstraw; Rate 200 g/ha, PREEMERGENCE",4
same,"Plant response rating, Cheatgrass","cheatgrass; POSTEMERGENCE, Rate 50 g/ha",4
same,"Plant response rating, Cheatgrass","cheatgrass; POSTEMERGENCE, Rate 200 g/ha",6
same,"Plant response rating, Cheatgrass","cheatgrass; PREEMERGENCE, Rate 50 g/ha",2
same,"Plant response rating, Cheatgrass","cheatgrass; Rate 200 g/ha, PREEMERGENCE",2
same,"Plant response rating, Chickweed","chickweed; POSTEMERGENCE, Rate 50 g/ha",8
same,"Plant response rating, Chickweed","chickweed; POSTEMERGENCE, Rate 200 g/ha",7
same,"Plant response rating, Chickweed","chickweed; PREEMERGENCE, Rate 50 g/ha",3
same,"Plant response rating, Chickweed","chickweed; Rate 200 g/ha, PREEMERGENCE",2
same,"Plant response rating, Cocklebur","cocklebur; POSTEMERGENCE, Rate 50 g/ha",7
same,"Plant response rating, Cocklebur","cocklebur; POSTEMERGENCE, Rate 200 g/ha",8
same,"Plant response rating, Cocklebur","cocklebur; PREEMERGENCE, Rate 50 g/ha",0
same,"Plant response rating, Cocklebur","cocklebur; Rate 200 g/ha, PREEMERGENCE",4
same,"Plant response rating, Blackgrass","blackgrass; POSTEMERGENCE, Rate 50 g/ha",6
same,"Plant response rating, Blackgrass","blackgrass; POSTEMERGENCE, Rate 200 g/ha",3
same,"Plant response rating, Blackgrass","blackgrass; PREEMERGENCE, Rate 50 g/ha",2
same,"Plant response rating, Blackgrass","blackgrass; Rate 200 g/ha, PREEMERGENCE",3
same,"Plant response rating, Corn","corn; POSTEMERGENCE, Rate 50 g/ha",5
same,"Plant response rating, Corn","corn; POSTEMERGENCE, Rate 200 g/ha",5
same,"Plant response rating, Corn","corn; PREEMERGENCE, Rate 50 g/ha",0
same,"Plant response rating, Corn","corn; Rate 200 g/ha, PREEMERGENCE",1
same,"Plant response rating, Sugar beet","sugar beet; POSTEMERGENCE, Rate 50 g/ha",7
same,"Plant response rating, Sugar beet","sugar beet; PREEMERGENCE, Rate 50 g/ha",7
same,"Plant response rating, Sugar beet","sugar beet; Rate 200 g/ha, POSTEMERGENCE",10
same,"Plant response rating, Sugar beet","sugar beet; Rate 200 g/ha, PREEMERGENCE",9
